In patent publication US20250084061A1, “SULFONYL FUNCTIONAL COMPOUND, METHODS AND USES THEREOF” (Hubei Biopesticide Engineering Research Centre, priority 2023, published 2025):
Like-named read-outs stand apart in the source and are kept apart here.

Assays:
[1] = system: Pythium aphanidermatum; assay: Bactericidal (fungicidal) activity by microdilution; format: cell-based
[2] = system: Plutella xylostella; assay: Insecticidal activity, artificial feed surface coating method; format: in vivo; settings: Plutella xylostella, read-out: Insecticidal activity (mortality rate grade) Plutella xylostella
Procedure: (§1) The insecticidal activity of sulfonyl functional compounds in the above embodiments were tested for agricultural biological functions, and the targets of insecticidal activity were Heliothis armigera, Plutella xylostella and Aphiscraccivora.
(§2) Using Heliothis armigera and Plutella xylostella as target, the insecticidal activities of sulfonyl functional compounds were tested by conventional artificial feed surface coating method. 300 microliters of artificial feed and 20 microliters of test solution were added to each well of the 24-well cell culture plate. The test solution was used in different concentrations and repeated twice (Rep1 and Rep2). The concentrations of the test solution were 500 mg/L, 250 mg/L and 125 mg/L, respectively.
(§3) The insecticidal activity of sulfonyl functional compounds against Aphiscraccivora was tested by the method of dipping. Mother liquors were prepared by the sulfonyl functional compounds provided in the above embodiments dissolved in ethanol, respectively. 500 mg/L, 250 mg/L or 125 mg/L test solution could be prepared by diluting the different mother liquors with a liquor that contained 0.1 mL/L of emulgator (Tween-80). Every test solution was tested twice (Rep1 and Rep2). A blank control was set up, and the activity results were compared with the blank control. The mortality rate of 0˜30%, 30˜50%, 50-70%, 70˜90%, or 90˜100% could be orderly set as 0, 3, 5, 7, or 9.

[3] = system: Heliothis armigera; assay: as above; format: in vivo; settings: Helicoverpa armigera, read-out: Insecticidal activity (mortality rate grade) Heliothis armigera
Procedure: as §1, §2, §3

[4] = system: Alternaria kikuchiana; assay: Bactericidal (fungicidal) activity by microdilution; format: cell-based
[5] = system: Aphiscraccivora; assay: Insecticidal activity, dipping method; format: in vivo
Procedure: as §1, §3

[6] = system: Fusarium oxysporum f. sp. Niveum; assay: Bactericidal (fungicidal) activity by microdilution; format: cell-based
[7] = system: Colletotrichum gloeobosporioids; assay: as above; format: cell-based
[8] = system: Botrytis cinerea; assay: as above; format: cell-based
[9] = system: Magnaporthe oryzae; format: cell-based
[10] = system: Thanatephorus cucumeris; assay: Bactericidal (fungicidal) activity by microdilution; format: cell-based
[11] = system: Septoria nodorum Berk.; assay: as above; format: cell-based
[12] = system: Verticillium dahliae.kieb.; assay: as above; format: cell-based
[13] = system: Fusarium culmorum; assay: as above; format: cell-based
[14] = system: Corynespora leaf spot of tomato; assay: as above; format: cell-based
[15] = system: Rhizoctonia solani; assay: as above; format: cell-based
[16] = system: Leptosphaeria biglobosa; assay: as above; format: cell-based

COC(=O)Nc1nc2ccccc2n1CCCS(=O)(=O)O [III-1]
Fungicidal activity (antibacterial rate grade) Pythium aphanidematum ([1]; 12.5 mg/L): 3 (The antibacterial rate of 0˜30% could be set as 3 if the growth of the target is normal and consistent with that of the blank control)
Fungicidal activity (antibacterial rate grade) Pythium aphanidematum ([1]; 25 mg/L): 3 (The antibacterial rate of 0˜30% could be set as 3 if the growth of the target is normal and consistent with that of the blank control)
Fungicidal activity (antibacterial rate grade) Pythium aphanidematum ([1]; 50 mg/L): 3 (The antibacterial rate of 0˜30% could be set as 3 if the growth of the target is normal and consistent with that of the blank control)
Fungicidal activity (antibacterial rate grade) Pythium aphanidematum ([1]; 100 mg/L): 3 (The antibacterial rate of 0˜30% could be set as 3 if the growth of the target is normal and consistent with that of the blank control)
mortality at 125 µg/mL ([2]; 125 mg/L test solution): 0 to 30%
mortality at 250 µg/mL ([2]; 250 mg/L test solution): 0 to 30%
mortality at 500 µg/mL ([2]; 500 mg/L test solution): 0 to 30%
mortality at 125 µg/mL ([3]; 125 mg/L test solution): 0 to 30%
mortality at 250 µg/mL ([3]; 250 mg/L test solution): 0 to 30%
mortality at 500 µg/mL ([3]; 500 mg/L test solution): 0 to 30%
Fungicidal activity (antibacterial rate grade) Alternaria kikuchiana ([4]; 12.5 mg/L): 3 (The antibacterial rate of 0˜30% could be set as 3 if the growth of the target is normal and consistent with that of the blank control)
Fungicidal activity (antibacterial rate grade) Alternaria kikuchiana ([4]; 25 mg/L): 3 (The antibacterial rate of 0˜30% could be set as 3 if the growth of the target is normal and consistent with that of the blank control)
Fungicidal activity (antibacterial rate grade) Alternaria kikuchiana ([4]; 50 mg/L): 3 (The antibacterial rate of 0˜30% could be set as 3 if the growth of the target is normal and consistent with that of the blank control)
Fungicidal activity (antibacterial rate grade) Alternaria kikuchiana ([4]; 100 mg/L): 3 (The antibacterial rate of 0˜30% could be set as 3 if the growth of the target is normal and consistent with that of the blank control)
Insecticidal activity (mortality rate grade) Aphiscraccivora ([5]; 125 mg/L test solution): 0 (mortality rate of 0˜30%)
Insecticidal activity (mortality rate grade) Aphiscraccivora ([5]; 250 mg/L test solution): 0 (mortality rate of 0˜30%)
Insecticidal activity (mortality rate grade) Aphiscraccivora ([5]; 500 mg/L test solution): 0 (mortality rate of 0˜30%)
Fungicidal activity (antibacterial rate grade) Fusarium oxysporum f. sp. Niveum ([6]; 12.5 mg/L): 9 (The antibacterial rate of 90˜100% could be set as 9 if the target has totally no growth)
Fungicidal activity (antibacterial rate grade) Fusarium oxysporum f. sp. Niveum ([6]; 25 mg/L): 9 (The antibacterial rate of 90˜100% could be set as 9 if the target has totally no growth)
Fungicidal activity (antibacterial rate grade) Fusarium oxysporum f. sp. Niveum ([6]; 50 mg/L): 9 (The antibacterial rate of 90˜100% could be set as 9 if the target has totally no growth)
Fungicidal activity (antibacterial rate grade) Fusarium oxysporum f. sp. Niveum ([6]; 100 mg/L): 9 (The antibacterial rate of 90˜100% could be set as 9 if the target has totally no growth)
Fungicidal activity (antibacterial rate grade) Colletotrichum gloeobosporioids ([7]; 12.5 mg/L): 9 (The antibacterial rate of 90˜100% could be set as 9 if the target has totally no growth)
Fungicidal activity (antibacterial rate grade) Colletotrichum gloeobosporioids ([7]; 25 mg/L): 9 (The antibacterial rate of 90˜100% could be set as 9 if the target has totally no growth)
Fungicidal activity (antibacterial rate grade) Colletotrichum gloeobosporioids ([7]; 50 mg/L): 9 (The antibacterial rate of 90˜100% could be set as 9 if the target has totally no growth)
Fungicidal activity (antibacterial rate grade) Colletotrichum gloeobosporioids ([7]; 100 mg/L): 9 (The antibacterial rate of 90˜100% could be set as 9 if the target has totally no growth)
Fungicidal activity (antibacterial rate grade) Botrytis cinerea ([8]; 12.5 mg/L): 3 (The antibacterial rate of 0˜30% could be set as 3 if the growth of the target is normal and consistent with that of the blank control)
Fungicidal activity (antibacterial rate grade) Botrytis cinerea ([8]; 25 mg/L): 3 (The antibacterial rate of 0˜30% could be set as 3 if the growth of the target is normal and consistent with that of the blank control)
Fungicidal activity (antibacterial rate grade) Botrytis cinerea ([8]; 50 mg/L): 3 (The antibacterial rate of 0˜30% could be set as 3 if the growth of the target is normal and consistent with that of the blank control)
Fungicidal activity (antibacterial rate grade) Botrytis cinerea ([8]; 100 mg/L): 3 (The antibacterial rate of 0˜30% could be set as 3 if the growth of the target is normal and consistent with that of the blank control)
Fungicidal activity (antibacterial rate grade) Magnaporthe oryzae ([9]; 12.5 mg/L): 9 (The antibacterial rate of 90˜100% could be set as 9 if the target has totally no growth)
Fungicidal activity (antibacterial rate grade) Magnaporthe oryzae ([9]; 25 mg/L): 9 (The antibacterial rate of 90˜100% could be set as 9 if the target has totally no growth)
Fungicidal activity (antibacterial rate grade) Magnaporthe oryzae ([9]; 50 mg/L): 9 (The antibacterial rate of 90˜100% could be set as 9 if the target has totally no growth)
Fungicidal activity (antibacterial rate grade) Magnaporthe oryzae ([9]; 100 mg/L): 9 (The antibacterial rate of 90˜100% could be set as 9 if the target has totally no growth)
Fungicidal activity (antibacterial rate grade) Thanatephorus cucumeris ([10]; 12.5 mg/L): 9 (The antibacterial rate of 90˜100% could be set as 9 if the target has totally no growth)
Fungicidal activity (antibacterial rate grade) Thanatephorus cucumeris ([10]; 25 mg/L): 9 (The antibacterial rate of 90˜100% could be set as 9 if the target has totally no growth)
Fungicidal activity (antibacterial rate grade) Thanatephorus cucumeris ([10]; 50 mg/L): 9 (The antibacterial rate of 90˜100% could be set as 9 if the target has totally no growth)
Fungicidal activity (antibacterial rate grade) Thanatephorus cucumeris ([10]; 100 mg/L): 9 (The antibacterial rate of 90˜100% could be set as 9 if the target has totally no growth)
Fungicidal activity (antibacterial rate grade) Septoria nodorum Berk. ([11]; 12.5 mg/L): 9 (The antibacterial rate of 90˜100% could be set as 9 if the target has totally no growth)
Fungicidal activity (antibacterial rate grade) Septoria nodorum Berk. ([11]; 25 mg/L): 9 (The antibacterial rate of 90˜100% could be set as 9 if the target has totally no growth)
Fungicidal activity (antibacterial rate grade) Septoria nodorum Berk. ([11]; 50 mg/L): 9 (The antibacterial rate of 90˜100% could be set as 9 if the target has totally no growth)
Fungicidal activity (antibacterial rate grade) Septoria nodorum Berk. ([11]; 100 mg/L): 9 (The antibacterial rate of 90˜100% could be set as 9 if the target has totally no growth)
Fungicidal activity (antibacterial rate grade) Verticillium dahliae. kieb. ([12]; 12.5 mg/L): 9 (The antibacterial rate of 90˜100% could be set as 9 if the target has totally no growth)
Fungicidal activity (antibacterial rate grade) Verticillium dahliae. kieb. ([12]; 25 mg/L): 9 (The antibacterial rate of 90˜100% could be set as 9 if the target has totally no growth)
Fungicidal activity (antibacterial rate grade) Verticillium dahliae. kieb. ([12]; 50 mg/L): 9 (The antibacterial rate of 90˜100% could be set as 9 if the target has totally no growth)
Fungicidal activity (antibacterial rate grade) Verticillium dahliae. kieb. ([12]; 100 mg/L): 9 (The antibacterial rate of 90˜100% could be set as 9 if the target has totally no growth)
Fungicidal activity (antibacterial rate grade) Fusarium culmorum ([13]; 12.5 mg/L): 9 (The antibacterial rate of 90˜100% could be set as 9 if the target has totally no growth)
Fungicidal activity (antibacterial rate grade) Fusarium culmorum ([13]; 25 mg/L): 9 (The antibacterial rate of 90˜100% could be set as 9 if the target has totally no growth)
Fungicidal activity (antibacterial rate grade) Fusarium culmorum ([13]; 50 mg/L): 9 (The antibacterial rate of 90˜100% could be set as 9 if the target has totally no growth)
Fungicidal activity (antibacterial rate grade) Fusarium culmorum ([13]; 100 mg/L): 9 (The antibacterial rate of 90˜100% could be set as 9 if the target has totally no growth)
Fungicidal activity (antibacterial rate grade) Corynespora leaf spot of tomato ([14]; 12.5 mg/L): 3 (The antibacterial rate of 0˜30% could be set as 3 if the growth of the target is normal and consistent with that of the blank control)
Fungicidal activity (antibacterial rate grade) Corynespora leaf spot of tomato ([14]; 25 mg/L): 3 (The antibacterial rate of 0˜30% could be set as 3 if the growth of the target is normal and consistent with that of the blank control)
Fungicidal activity (antibacterial rate grade) Corynespora leaf spot of tomato ([14]; 50 mg/L): 7 (The antibacterial rate of 70˜90% could be set as 7 if the target has small amounts of growth)
Fungicidal activity (antibacterial rate grade) Corynespora leaf spot of tomato ([14]; 100 mg/L): 7 (The antibacterial rate of 70˜90% could be set as 7 if the target has small amounts of growth)
Fungicidal activity (antibacterial rate grade) Rhizoctonia solani ([15]; 12.5 mg/L): 3 (The antibacterial rate of 0˜30% could be set as 3 if the growth of the target is normal and consistent with that of the blank control)
Fungicidal activity (antibacterial rate grade) Rhizoctonia solani ([15]; 25 mg/L): 3 (The antibacterial rate of 0˜30% could be set as 3 if the growth of the target is normal and consistent with that of the blank control)
Fungicidal activity (antibacterial rate grade) Rhizoctonia solani ([15]; 50 mg/L): 3 (The antibacterial rate of 0˜30% could be set as 3 if the growth of the target is normal and consistent with that of the blank control)
Fungicidal activity (antibacterial rate grade) Rhizoctonia solani ([15]; 100 mg/L): 3 (The antibacterial rate of 0˜30% could be set as 3 if the growth of the target is normal and consistent with that of the blank control)
Fungicidal activity (antibacterial rate grade) Leptosphaeria biglobosa ([16]; 12.5 mg/L): 9 (The antibacterial rate of 90˜100% could be set as 9 if the target has totally no growth)
Fungicidal activity (antibacterial rate grade) Leptosphaeria biglobosa ([16]; 25 mg/L): 9 (The antibacterial rate of 90˜100% could be set as 9 if the target has totally no growth)
Fungicidal activity (antibacterial rate grade) Leptosphaeria biglobosa ([16]; 50 mg/L): 9 (The antibacterial rate of 90˜100% could be set as 9 if the target has totally no growth)
Fungicidal activity (antibacterial rate grade) Leptosphaeria biglobosa ([16]; 100 mg/L): 9 (The antibacterial rate of 90˜100% could be set as 9 if the target has totally no growth)
